Tests used:
[1] = Comparison of the stabilities of the waves: wave stability (WSN); conditions: waving solution 87 mmoles/100 g reducing agent, standardized to glycerin monothioglycolate solution pH 9 = 100%; for WSN pH = 7: pH 7, 20 minutes at 50° C.; for WSN pH = 8: pH 8, 20 minutes at 50° C.; for WSN pH = 9: pH 9, 20 minutes at 50° C.
Procedure: The waving effectiveness of the 1-mercaptopropionamides was determined using glycerin monothioglycolate as comparison substance with the help of waving solutions at a pH of 7, 8 and 9. For this purpose, pre-bleached and therefore damaged counting hair strands (consisting of about 100 hairs) from Middle European hair was wound wet onto standardized spiral curlers (internal diameter of 3 millimeters) and, after being conditioned in an air-conditioned room (temperature: 20° C., relative humidity: 65%), treated with a solution of the reducing agent, containing 87 mmoles/100 g and adjusted to the respective pH. The amount of waving liquid applied was calculated from the ratio of 1:1.2 (1 g of hair: 1.2 mL of waving liquid). A period of action of 20 minutes at a temperature of 50° C. was selected. Subsequently, the hair was fixed with a peroxide-containing material, removed from the curlers and hung up for 4 hours in water (waterbath temperature: 40° C.).
The wave stability (WSN) is calculated from the following formula:
[formula] • 1o=total length of the not shaped, stretched strands (16.5 cm) • 1t=length of the strands, removed from the curlers and suspended, after 240 minutes • 1l=length of the shaped strands on curlers (for curlers with an internal diameter of 3 mm, 1l=35 mm)
As a standard, strands were treated with a glycerin monothioglycolate solution, the pH of which had been adjusted to a value of 9. The standardized wave stabilities, given below in Table 1, relate to this standard solution (pH=9), the wave stability (WSN) of which has been set at 100%.

[2] = pKa value; format: physicochemical

Compound: CC(S)C(=O)N(CCO)C(C)C (stereo not shown) [N-Isopropyl,N-(2-hydroxyethyl)-2-mercaptopropionamide]
- WSN pH = 7 [1]: 65%
- WSN pH = 8 [1]: 88%
- WSN pH = 9 [1]: 109%
- melting point: 100 °C

Compound: CCN(CC)CCCNC(=O)C(C)S (stereo not shown) [N-(3-Diethylaminopropyl)-2-mercaptopropionamide]
- WSN pH = 7 [1]: 77%
- WSN pH = 8 [1]: 73%
- WSN pH = 9 [1]: 81%
- melting point: 65 °C

Compound: CC(O)CNC(=O)C(C)S (stereo not shown) [N-(2-Hydroxypropyl)-2-mercaptopropionamide]
- WSN pH = 7 [1]: 78%
- WSN pH = 8 [1]: 94%
- WSN pH = 9 [1]: 94%
- pKa [2]: 8.37

Compound: CCC(O)CNC(=O)C(C)S (stereo not shown) [N-(2-Hydroxy-1-butyl)-2-mercaptopropionamide]
- WSN pH = 7 [1]: 79%
- WSN pH = 8 [1]: 91%
- WSN pH = 9 [1]: 94%

Compound: CC(S)C(=O)NCC1CCCO1 (stereo not shown) [N-Tetrahydrofurfuryl-2-mercaptopropionamide]
- WSN pH = 7 [1]: 85%
- WSN pH = 8 [1]: 88%
- WSN pH = 9 [1]: 94%
- melting point: 82 °C

Compound: CCCN(CCO)C(=O)C(C)S (stereo not shown) [N-Propyl,N-(2-hydroxyethyl)-2-mercaptopropionamide]
- WSN pH = 7 [1]: 77%
- WSN pH = 8 [1]: 89%
- WSN pH = 9 [1]: 99%
- melting point: 80 °C

Compound: COCCCNC(=O)C(C)S (stereo not shown) [N-(3-Methoxypropyl)-2-mercaptopropionamide]
- WSN pH = 7 [1]: 79%
- WSN pH = 8 [1]: 92%
- WSN pH = 9 [1]: 91%
- melting point: 97 °C

Compound: CCC(CO)NC(=O)C(C)S (stereo not shown) [N-(1-Hydroxymethylpropyl)-2-mercaptopropionamide]
- WSN pH = 7 [1]: 73%
- WSN pH = 8 [1]: 88%
- WSN pH = 9 [1]: 85%

Compound: CNCCCNC(=O)C(C)S (stereo not shown) [N-(3-Methylaminopropyl)-2-mercaptopropionamide]
- WSN pH = 7 [1]: 55%
- WSN pH = 8 [1]: 73%
- WSN pH = 9 [1]: 78%

Compound: CC(S)C(=O)N1CCCC(O)C1 (stereo not shown)
- WSN pH = 7 [1]: 79%
- WSN pH = 8 [1]: 94%
- WSN pH = 9 [1]: 89%

Compound: CC(S)C(=O)NCCN(C)C (stereo not shown) [N-(2-Dimethylaminoethyl)-2-mercaptopropionamide]
- WSN pH = 7 [1]: 81%
- WSN pH = 8 [1]: 87%
- WSN pH = 9 [1]: 83%
- melting point: 83 °C

Compound: CC(S)C(=O)NCCN1CCOCC1 (stereo not shown) [N-(2-Morpholinoethyl)-2-mercaptopropionamide]
- WSN pH = 7 [1]: 85%
- WSN pH = 8 [1]: 93%
- WSN pH = 9 [1]: 92%

Compound: CC(S)C(=O)NCCO (stereo not shown) [N-(2-Hydroxyethyl)-2-mercaptopropionamide]
- WSN pH = 7 [1]: 84%
- WSN pH = 8 [1]: 106%
- WSN pH = 9 [1]: 103%

Compound: CCNCCNC(=O)C(C)S (stereo not shown) [N-(2-Ethylaminoethyl)-2-mercaptopropionamide]
- WSN pH = 7 [1]: 57%
- WSN pH = 8 [1]: 82%
- WSN pH = 9 [1]: 60%

Compound: CC(S)C(=O)N1CCN(C)CC1 (stereo not shown) [N,N-(4-Methylaza-pentamethylene)-2-mercaptopropionamide]
- WSN pH = 7 [1]: 78%
- WSN pH = 8 [1]: 86%
- WSN pH = 9 [1]: 78%

Compound: COCCNC(=O)C(C)S (stereo not shown) [N-(2-Methoxyethy)-2-mercaptopropionamide]
- WSN pH = 7 [1]: 87%
- WSN pH = 8 [1]: 99%
- WSN pH = 9 [1]: 106%

Compound: CC(S)C(=O)NCCN (stereo not shown) [N-(2-Aminoethyl)-2-mercaptopropionamide]
- WSN pH = 7 [1]: 61%
- WSN pH = 8 [1]: 81%
- WSN pH = 9 [1]: 87%

Compound: Thiolactic acid [reference compound]
- WSN pH = 7 [1]: 57%
- WSN pH = 8 [1]: 50%
- WSN pH = 9 [1]: 70%

Compound: CCN(CCO)C(=O)C(C)S (stereo not shown) [N-Ethyl,N-(2-hydroxyethyl)-2-mercaptopropionamide]
- WSN pH = 7 [1]: 94%
- WSN pH = 8 [1]: 83%
- WSN pH = 9 [1]: 114%
- melting point: 95 °C

Compound: CC(S)C(=O)NCCCN (stereo not shown) [N-(3-Aminopropyl)-2-mercaptopropionamide]
- WSN pH = 7 [1]: 67%
- WSN pH = 8 [1]: 82%
- WSN pH = 9 [1]: 88%

Compound: CC(S)C(=O)NCCCN(C)C (stereo not shown) [N-(3-Dimethylaminopropyl)-2-mercaptopropionamide]
- WSN pH = 7 [1]: 72%
- WSN pH = 8 [1]: 83%
- WSN pH = 9 [1]: 95%
- melting point: 84 °C

Compound: COCC(C)NC(=O)C(C)S (stereo not shown) [N-(1-Methoxy-2-propyl)-2-mercaptopropionamide]
- WSN pH = 7 [1]: 91%
- WSN pH = 8 [1]: 95%
- WSN pH = 9 [1]: 99%
- melting point: 60 °C

Compound: CC(S)C(=O)N(C)CCO (stereo not shown) [N-Methyl,N-(2-hydroxyethyl)-2-mercaptopropionamide]
- WSN pH = 7 [1]: 72%
- WSN pH = 8 [1]: 91%
- WSN pH = 9 [1]: 91%
- melting point: 95 °C

Compound: CCN(CC)CCNC(=O)C(C)S (stereo not shown) [N-(2-Diethylaminoethyl)-2-mercaptopropionamide]
- WSN pH = 7 [1]: 71%
- WSN pH = 8 [1]: 80%
- WSN pH = 9 [1]: 77%
- melting point: 74 °C

Compound: COCCN(CCOC)C(=O)C(C)S (stereo not shown) [N,N-Bis-(2-methoxyethyl)-2-mercaptopropionamide]
- WSN pH = 7 [1]: 78%
- WSN pH = 8 [1]: 93%
- WSN pH = 9 [1]: 91%
- melting point: 85 °C

Source: US7341715B2, “Method and agents on the basis of 2-mercaptopropionic acid amides for durable hair forming and a method for producing same” (Wella AG, priority 2000, dated 2008)
